1 molecule from article PMC10819765, “The biochemically defined super relaxed state of myosin—A paradox” (The Journal of Biological Chemistry, 2023) can be followed below.

This assay has as its target T1, porcine cardiac ventricle myosin (pc-HMM; beta-cardiac myosin heavy chain) (Sus scrofa, UniProt P79293).
T1 construct: gene MYH7; chymotryptic heavy meromyosin (pc-HMM); also S1 (pc-S1); with myosin light chains (RLC, essential light chain)
Nature of the assay: stopped-flow FRET (Trp to mant) displacement and multiple-turnover assay; kcat […] s^-1. It is filed as biochemical.

T1 sequence (P79293 whole entry): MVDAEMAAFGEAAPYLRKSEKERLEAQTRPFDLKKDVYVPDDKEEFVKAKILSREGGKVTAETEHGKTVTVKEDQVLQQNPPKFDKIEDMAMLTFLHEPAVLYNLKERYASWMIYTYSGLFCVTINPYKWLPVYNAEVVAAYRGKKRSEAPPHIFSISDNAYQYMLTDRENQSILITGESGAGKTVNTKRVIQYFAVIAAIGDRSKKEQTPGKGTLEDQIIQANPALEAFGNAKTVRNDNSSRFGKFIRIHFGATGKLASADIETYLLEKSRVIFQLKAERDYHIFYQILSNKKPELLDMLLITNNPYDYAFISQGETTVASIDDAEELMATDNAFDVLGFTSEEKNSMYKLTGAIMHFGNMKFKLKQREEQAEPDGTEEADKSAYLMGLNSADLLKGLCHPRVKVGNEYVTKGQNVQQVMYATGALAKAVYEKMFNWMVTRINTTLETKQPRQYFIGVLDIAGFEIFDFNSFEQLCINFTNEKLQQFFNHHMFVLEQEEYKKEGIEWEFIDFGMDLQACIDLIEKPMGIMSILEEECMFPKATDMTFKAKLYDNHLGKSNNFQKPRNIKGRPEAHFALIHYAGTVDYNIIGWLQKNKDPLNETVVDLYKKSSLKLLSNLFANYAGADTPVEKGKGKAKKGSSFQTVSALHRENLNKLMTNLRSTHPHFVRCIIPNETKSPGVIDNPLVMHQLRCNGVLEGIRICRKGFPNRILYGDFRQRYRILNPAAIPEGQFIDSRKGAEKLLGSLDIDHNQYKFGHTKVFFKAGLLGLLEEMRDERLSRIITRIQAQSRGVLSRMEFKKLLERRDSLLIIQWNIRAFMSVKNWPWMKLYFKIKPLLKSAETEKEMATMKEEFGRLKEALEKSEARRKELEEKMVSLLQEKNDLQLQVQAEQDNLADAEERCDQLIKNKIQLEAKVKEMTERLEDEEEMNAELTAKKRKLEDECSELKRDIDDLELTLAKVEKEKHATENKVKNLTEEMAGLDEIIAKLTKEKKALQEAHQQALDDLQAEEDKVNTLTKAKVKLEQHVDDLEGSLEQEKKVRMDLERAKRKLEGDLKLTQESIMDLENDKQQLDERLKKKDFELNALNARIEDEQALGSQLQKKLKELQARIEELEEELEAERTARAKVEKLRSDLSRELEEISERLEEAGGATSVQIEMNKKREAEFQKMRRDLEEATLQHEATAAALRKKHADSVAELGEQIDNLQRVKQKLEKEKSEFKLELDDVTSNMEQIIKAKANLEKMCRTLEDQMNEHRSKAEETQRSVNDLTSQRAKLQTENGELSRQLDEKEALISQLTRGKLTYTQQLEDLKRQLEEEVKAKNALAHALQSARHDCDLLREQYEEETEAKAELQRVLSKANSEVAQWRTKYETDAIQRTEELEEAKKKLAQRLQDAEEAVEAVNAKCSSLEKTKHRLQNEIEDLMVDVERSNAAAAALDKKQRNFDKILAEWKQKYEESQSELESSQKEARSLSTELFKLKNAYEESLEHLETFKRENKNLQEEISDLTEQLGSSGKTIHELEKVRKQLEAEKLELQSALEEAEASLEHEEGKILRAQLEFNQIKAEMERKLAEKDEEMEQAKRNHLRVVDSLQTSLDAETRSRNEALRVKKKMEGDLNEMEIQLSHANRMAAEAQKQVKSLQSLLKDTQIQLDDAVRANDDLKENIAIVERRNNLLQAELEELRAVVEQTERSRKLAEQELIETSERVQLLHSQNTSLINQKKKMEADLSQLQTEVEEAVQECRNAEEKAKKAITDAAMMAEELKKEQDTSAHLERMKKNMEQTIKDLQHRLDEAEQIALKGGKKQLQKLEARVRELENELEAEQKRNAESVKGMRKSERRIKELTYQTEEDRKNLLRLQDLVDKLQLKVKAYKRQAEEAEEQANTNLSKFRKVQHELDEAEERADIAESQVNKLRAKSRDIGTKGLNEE

In the case of `CNc1ccccc1C(=O)O[C@H]1C[C@H](n2cnc3c(N)ncnc32)O[C@@H]1COP(=O)(O)OP(=O)(O)OP(=O)(O)O` [mant.dATP], the “kcat (s^-1) / Mean” value was 0.0282 s⁻¹.
